The record followed here is ChEMBL document CHEMBL4665886, “Assessing different thiazolidine and thiazole based compounds as antileishmanial scaffolds” (Bioorg Med Chem Lett, 2020).

Data set [1] in a line: Therapeutic index, ratio of average IC50 for human MRC5 and BJ cells to IC50 for antileishmanial activity against Leishmania major. The format is toxicity. The note with it: MRC5 and BJ cells (average IC50) versus Leishmania major, read-out: TI.
The test system of data set [2] is BJ. Description: Cytotoxicity against human BJ cells after 24 hrs by redox-sensitive dye based fluorescent assay. Type of data set: cell-based.
In data set [3] the test system is Leishmania major. Description: Antileishmanial activity against Leishmania major FV1 assessed as reduction in parasite growth. The format is functional, organism-based.
Data set [4] concerns Trypanosoma brucei brucei. Put plainly: Antitrypanosomal activity against bloodstream form of Trypanosoma brucei brucei 90-13 assessed as reduction in parasite growth. Type of data set: functional, organism-based.
Data set [5] deals with Trypanosoma brucei gambiense. Put plainly: Antitrypanosomal activity against bloodstream form of Trypanosoma brucei gambiense Feo assessed as reduction in parasite growth. Type of data set: functional, organism-based.
Data set [6] relates to MRC5. Put plainly: Cytotoxicity against human MRC5 cells after 24 hrs by redox-sensitive dye based fluorescent assay. Type of data set: cell-based. The note with it: MRC5, 24 h.

pIC50: −log10 of the molar value.

In general, pIC50 refers to the IC50 on a negative log10 scale, so that one unit is a factor of ten. Regarding `C=CCN1C(=O)C(CC(=O)c2ccc(F)cc2)S/C1=N\N=C\c1ccccc1` (stereo not given), the selectivity ratio in data set [1] was 0.45. Also, the negative-log IC50 (pIC50) was 4.67 in data set [2]; 4.32 in data set [3]; below 4.30 in data set [4]; below 4.30 in data set [5]; 4.70 in data set [6].
For the compound `CCC1S/C(=N\N=C\c2c(-c3ccc(Cl)cc3)[nH]c3ccccc23)NC1=O` (stereo not given), the selectivity ratio in data set [1] was 0.36. Further, the pIC50 in data set [2] was 5.13; in data set [3] it was 4.64; in data set [6], 5.06.
For `O=C(CC1S/C(=N\N=C\c2c(-c3ccccc3)[nH]c3ccccc23)NC1=O)c1ccccc1` (stereo not given) the same measures were above 5.47, below 4.30, 5.04 and below 4.30.
With `CCOC(=O)c1sc(N/N=C/c2c(-c3ccc([N+](=O)[O-])cc3)[nH]c3ccccc23)nc1C`, in data set [1], the selectivity ratio turned out to be 5.09. Further, the negative-log IC50 (pIC50) is 4.30 in data set [2], 5.14 in data set [3] and 4.63 in data set [6].
For `O=C1CS/C(=N\N=C\c2c(-c3ccc(Cl)cc3)[nH]c3ccccc23)N1`, in that order: above 7.13, below 4.30, 5.15 and below 4.30.
Turning to `CCC1S/C(=N\N=C\c2c(-c3ccc(Br)cc3)[nH]c3ccccc23)NC1=O` (stereo not given), the selectivity ratio in data set [1] worked out at 0.36. Further, the negative-log IC50 (pIC50) in data set [2] was 5.13; in data set [3], 4.73; in data set [6], 5.23.
In the case of `O=C1N/C(=N/N=C/c2c(-c3ccc(Br)cc3)[nH]c3ccccc23)SC1CCO` (stereo not given), the selectivity ratio in data set [1] worked out at 1.75. The results for the pIC50 in data set [2], in data set [3] and in data set [6] were 4.53, 4.89 and 4.80, respectively.
For `C=CCSc1nn2c(/C=N/N=C3/NC(=O)C(CCOC(C)=O)S3)c(-c3ccccc3)nc2s1` (stereo not given), in that order: 2.96, 4.46, 5.01 and 4.63.
For `O=C(CC1S/C(=N\N=C\c2c(-c3ccccc3)[nH]c3ccccc23)NC1=O)c1ccc(F)cc1` (stereo not given) the same measures were above 6.18, below 4.30, 5.09 and 4.30.
For `CC(=O)OCCC1S/C(=N\N=C\c2c(-c3ccccc3)[nH]c3ccccc23)NC1=O` (stereo not given) the same measures were 11.3, 4.43, 5.45 and 4.37.
Take `CC1S/C(=N\N=C\c2c(-c3ccc(Br)cc3)[nH]c3ccccc23)NC1=O` (stereo not given): the selectivity ratio in data set [1] is above 2.7. Also, the figures for the negative-log IC50 (pIC50) in data set [2], in data set [3] and in data set [6] were below 4.30, 4.73 and below 4.30, respectively.
Consider `C=CCSc1nn2c(C=O)c(-c3ccccc3)nc2s1`, for which the selectivity ratio in data set [1] is above 4.78. Further, the negative-log IC50 (pIC50) in data set [2] was below 4.30; in data set [3], 5.05; in data set [5], 5.63; in data set [6], 4.45.
For the compound `O=C1N/C(=N/N=C/c2c(-c3ccc(Cl)cc3)[nH]c3ccccc23)SC1CCO` (stereo not given), in data set [1], the selectivity ratio came to 1.13. Further, the pIC50 is 4.65 in data set [2], 4.80 in data set [3] and 4.88 in data set [6].
For `CCC1S/C(=N\N=C\c2c(-c3ccc([N+](=O)[O-])cc3)[nH]c3ccccc23)NC1=O` (stereo not given) the same measures were 1.87, 4.53, 4.83 and 4.60.
For `CCC1S/C(=N\N=C\c2c(-c3ccccc3)[nH]c3ccccc23)NC1=O` (stereo not given), in that order: above 44.6, below 4.30, 5.95 and below 4.30.
Consider `O=C1CS/C(=N\N=C\c2c(-c3ccccc3)[nH]c3ccccc23)N1`, for which, in data set [1], the selectivity ratio was above 29.1. The negative-log IC50 (pIC50) in data set [2] was below 4.30; in data set [3] it was 5.76; in data set [6], below 4.30.
As for `CC1S/C(=N\N=C\c2c(-c3ccccc3)[nH]c3ccccc23)NC1=O` (stereo not given), the selectivity ratio in data set [1] was above 48.1. The pIC50 in data set [2] is below 4.30; in data set [3], 6.00; in data set [6], below 4.30.
Turning to `CCOC(=O)c1sc(N/N=C/c2c(-c3ccc(Cl)cc3)[nH]c3ccccc23)nc1C`, in data set [1], the selectivity ratio was above 2.49. Besides, the values for the pIC50 in data set [2], in data set [3] and in data set [6] were below 4.30, 4.92 and 4.60, respectively.
Take `CCOC(=O)C(Cc1ccccc1)N1C(=O)/C(=C/Nc2ncc(Cc3ccc(Cl)cc3Cl)s2)SC1=S` (stereo not given): the selectivity ratio in data set [1] is above 3.3. The negative logarithm of the IC50 (pIC50) is below 4.30 in data set [2]; 4.82 in data set [3]; 5.63 in data set [4]; 5.73 in data set [5]; below 4.30 in data set [6].
Regarding `C[C@@H]1CC[C@@H]2[C@@H](C1)c1sc(=O)n(CC(=O)Nc3ccccc3)c1SC2(C)C`, in data set [1], the selectivity ratio was above 5.76. For the same compound, the pIC50 in data set [2] is below 4.30; in data set [3] it was 5.06; in data set [4], 4.99; in data set [6] it was below 4.30.
Take `O=C(CC1S\C(=N/N=C\C=C\c2ccccc2)N(Cc2ccco2)C1=O)Nc1cccc(C(F)(F)F)c1` (stereo not given): the selectivity ratio in data set [1] amounted to 0.75. Also, the pIC50 in data set [2] is 4.81; in data set [3], 4.74; in data set [4], below 4.30; in data set [5], below 4.30; in data set [6], 4.92.
With `O=C1CS/C(=N/N=C/c2c(-c3ccc(Cl)cc3)[nH]c3ccccc23)N1Cc1ccco1`, the selectivity ratio in data set [1] worked out at 0.75. Moreover, the negative logarithm of the IC50 (pIC50) in data set [2] was 5.09; in data set [3] it was 4.90; in data set [5], 5.14; in data set [6], 4.97.
For `C[C@@H]1CC[C@@H]2[C@@H](C1)c1sc(=O)n(CC(=O)Nc3ccc(S(N)(=O)=O)cc3)c1SC2(C)C`, in data set [1], the selectivity ratio was above 2.53. For the same compound, the negative logarithm of the IC50 (pIC50) was below 4.30 in data set [2], 4.70 in data set [3], 4.85 in data set [4] and below 4.30 in data set [6].
For `C[C@@H]1CC[C@@H]2[C@@H](C1)c1sc(=O)n(CC(=O)Nc3ccccc3C(F)(F)F)c1SC2(C)C`, the selectivity ratio in data set [1] is above 2.78. Moreover, the pIC50 in data set [2] is below 4.30; in data set [3], 4.75; in data set [4] it was 5.07; in data set [6], below 4.30.
With `C=CCN1C(=O)C(CC(=O)c2ccc(F)cc2)S/C1=N\N=C1\CC2CCC1(C)C2(C)C` (stereo not given), in data set [1], the selectivity ratio is above 3.28. Also, the negative-log IC50 (pIC50) in data set [2] was below 4.30; in data set [3] it was 4.82; in data set [4], below 4.30; in data set [5] it was below 4.30; in data set [6], below 4.30.
Take `C[C@@H]1CC[C@@H]2[C@@H](C1)c1sc(=O)n(CCC#N)c1SC2(C)C`: in data set [1], the selectivity ratio is above 3.38. The negative-log IC50 (pIC50) is below 4.30 in data set [2], 4.83 in data set [3] and below 4.30 in data set [6].
With `CCOC(=O)C(Cc1ccccc1)N1C(=O)/C(=C/Nc2nccs2)SC1=S` (stereo not given), in data set [1], the selectivity ratio is above 1.73. Moreover, the pIC50 in data set [2] was below 4.30; in data set [3] it was 4.54; in data set [4], 5.02; in data set [5], 4.87; in data set [6] it was below 4.30.
With `CCc1nn2c(C=O)c(-c3ccc([N+](=O)[O-])cc3)nc2s1`, in data set [1], the selectivity ratio is above 1.65. Also, the pIC50 in data set [2] is below 4.30; in data set [3] it was 4.52; in data set [6], below 4.30.
Take `C[C@@H]1CC[C@@H]2[C@@H](C1)c1sc(=O)n(CC(=O)Nc3cccc(C(F)(F)F)c3)c1SC2(C)C`: the selectivity ratio in data set [1] was above 3.47. In addition, the pIC50 in data set [2] was below 4.30; in data set [3], 4.84; in data set [4], 5.53; in data set [6], below 4.30.
For `C[C@@H]1[C@H](O)[C@@H](C)/C=C/C=C/C=C/C=C/C=C/C=C/C=C/[C@H](O[C@@H]2O[C@H](C)[C@@H](O)[C@H](N)[C@@H]2O)C[C@@H]2O[C@](O)(C[C@@H](O)C[C@@H](O)[C@H](O)CC[C@@H](O)C[C@@H](O)CC(=O)O[C@H]1C)C[C@H](O)[C@H]2C(=O)O` [AMPHOTERICIN B], the selectivity ratio in data set [1] is above 100. The figures for the pIC50 in data set [2], in data set [3] and in data set [6] were below 4.30, 6.30 and below 4.30, respectively.
With `CCCCCCCCCCCCCCCCOP(=O)([O-])OCC[N+](C)(C)C` [MILTEFOSINE], in data set [1], the selectivity ratio is above 6.11. Moreover, the negative logarithm of the IC50 (pIC50) was below 4.30 in data set [2], 5.09 in data set [3] and below 4.30 in data set [6].
